Data taken from US20250326744A1, “PIPERAZINE DERIVATIVE OR SALT THEREOF, AND PHARMACEUTICAL COMPOSITION” (priority 2022, published 2025).
Structures can show the parent of a compound that is named as a salt.

What was measured:
mexB (PA) strain = test: Combinational effect with antibacterial agent against Pseudomonas aeruginosa (Test Examples 2 and 4): mexB (PA) strain with LVFX, TC or AZT at 1/4 MIC, EC99; type: cell-based; conditions: Table 52, Test Example 2, 16 to 20 hours culture, OD595; for EC99, mexB (PA), AZT: combined with AZT at 1/4 MIC; for EC99, mexB (PA), LVFX: combined with LVFX at 1/4 MIC; for EC99, mexB (PA), TC: combined with TC at 1/4 MIC
Summary of the method: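 EC99 denotes the minimum test-compound concentration (range 0–800 μM) that suppresses ≥99% of growth, measured by OD595, when combined with ¼ MIC levofloxacin (LVFX), tetracycline or aztreonam. The efflux-pump mutant mexB (PA), expressing mainly MexAB-OprM, was inoculated at 10^4–5 CFU/well in CAMHB for 16–20 h.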

S-3769 strain = test: Combinational effect with antibacterial agent against Pseudomonas aeruginosa (Test Examples 2 and 4): S-3769 strain with AMK or GM at 1/4 MIC, EC99; type: cell-based; conditions: Table 52, Test Example 2, 16 to 20 hours culture, OD595; for EC99, S-3769 strain, AMK: combined with AMK at 1/4 MIC; for EC99, S-3769 strain, GM: combined with GM at 1/4 MIC
Summary of the method: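 EC99, the lowest test-compound concentration inhibiting growth by ≥99% (OD595), was measured with aminoglycoside AMK or GM held at ¼ MIC. Strain S-3769, a MexY-overexpressing clinical isolate, was cultured in CAMHB at 10^4 to 5 CFU/well for 16–20 h; compound range 0–800 μM.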

SMILES | EC99, mexB (PA), AZT (mexB (PA) strain) | EC99, mexB (PA), LVFX (mexB (PA) strain) | EC99, mexB (PA), TC (mexB (PA) strain) | EC99, S-3769 strain, AMK (S-3769 strain) | EC99, S-3769 strain, GM (S-3769 strain)
CCOc1cccc(F)c1CN1CCN(C(=O)[C@H](N)C2CCN(CCc3cc(Cl)ccc3C3CC3)CC2)CC1 [Example 78, Hydrobromide of (R)-2-amino-2-(1-(5-chloro-2-cyclopropylphenethyl)piperidin-4-yl)-1-(4-(2-ethoxy-6-fluorobenzyl)piperazin-1-yl)ethan-1-one] | B (25 μM<EC99≤100 μM) | C (100 μM<EC99) | B (25 μM<EC99≤100 μM) | S (EC99≤12.5 μM) | S (EC99≤12.5 μM)
CCOc1cccc(F)c1CN1CCN(C(=O)[C@H](N)C2CCN(CCc3c(-c4ccccc4)ccc(Cl)c3F)CC2)CC1 [Example 79, Hydrobromide of (R)-2-amino-2-(1-(2-(4-chloro-3-fluoro-[1,1′-biphenyl]-2-yl)ethyl)piperidin-4-yl)-1-(4-(2-ethoxy-6-fluorobenzyl)piperazin-1-yl)ethan-1-one] | B (25 μM<EC99≤100 μM) | B (25 μM<EC99≤100 μM) | B (25 μM<EC99≤100 μM) | S (EC99≤12.5 μM) | A (12.5 μM<EC99≤25 μM)
CCOc1cccc(F)c1CN1CCN(C(=O)[C@H](N)C2CCN(CCc3cc(C)ccc3-c3ccccc3)CC2)CC1 [Example 81, Hydrobromide of (R)-2-amino-1-(4-(2-ethoxy-6-fluorobenzyl)piperazin-1-yl)-2-(1-(2-(4-methyl-[1,1′-biphenyl]-2-yl)ethyl)piperidin-4-yl)ethan-1-one] | B (25 μM<EC99≤100 μM) | B (25 μM<EC99≤100 μM) | B (25 μM<EC99≤100 μM) | S (EC99≤12.5 μM) | S (EC99≤12.5 μM)
CCOc1cccc(F)c1CN1CCN(C(=O)[C@H](N)C2CCN(CCc3cc(C(F)(F)F)ccc3-c3ccccc3)CC2)CC1 [Example 83, Hydrobromide of (R)-2-amino-1-(4-(2-ethoxy-6-fluorobenzyl)piperazin-1-yl)-2-(1-(2-(4-(trifuluoromethyl)-[1,1′-biphenyl]-2-yl)ethyl)piperidin-4-yl) ethan-1-one] | B (25 μM<EC99≤100 μM) | B (25 μM<EC99≤100 μM) | B (25 μM<EC99≤100 μM) | B (25 μM<EC99≤100 μM) | B (25 μM<EC99≤100 μM)
CCOc1cccc(F)c1CN1CCN(C(=O)[C@H](N)C2CCN(CCc3cc(OC(F)(F)F)ccc3-c3ccccc3Cl)CC2)CC1 [Example 86, Hydrobromide of (R)-2-amino-2-(1-(2-(2′-chloro-4-(trifluoromethoxy)-[1,1′-biphenyl]-2-yl)ethyl)piperidin-4-yl)-1-(4-(2-ethoxy-6-fluorobenzyl)piperazin-1-yl)ethan-1-one] | B (25 μM<EC99≤100 μM) | B (25 μM<EC99≤100 μM) | B (25 μM<EC99≤100 μM) | B (25 μM<EC99≤100 μM) | B (25 μM<EC99≤100 μM)
CCOc1cccc(F)c1CN1CCN(C(=O)[C@H](N)C2CCN(CCc3cc(Cl)ccc3C3=CCCNC3)CC2)CC1 [Example 88, Hydrobromide of (R)-2-amino-2-(1-(5-chloro-2-(1,2,5,6-tetrahydropyridin-3-yl)phenethyl)piperidin-4-yl)-1-(4-(2-ethoxy-6-fluorobenzyl)piperazin-1-yl) ethan-1-one] | C (100 μM<EC99) | C (100 μM<EC99) | B (25 μM<EC99≤100 μM) | S (EC99≤12.5 μM) | S (EC99≤12.5 μM)
CCOc1cccc(F)c1CN1CCN(C(=O)[C@H](N)C2CCN(CCc3cc(Cl)ccc3-c3ccc(F)cc3Cl)CC2)CC1 [Example 90, Hydrobromide of (R)-2-amino-2-(1-(2-(2′,4-dichloro-4′-fluoro-[1,1′-biphenyl]-2-yl)ethyl)piperidin-4-yl)-1-(4-(2-ethoxy-6-fluorobenzyl)piperazin-1-yl) ethan-1-one] | B (25 μM<EC99≤100 μM) | B (25 μM<EC99≤100 μM) | A (12.5 μM<EC99≤25 μM) | A (12.5 μM<EC99≤25 μM) | B (25 μM<EC99≤100 μM)
CCOc1cccc(F)c1CN1CCN(C(=O)[C@H](N)C2CCN(CCc3cc(Cl)ccc3-c3cnccc3Cl)CC2)CC1 [Example 91, Hydrobromide of (R)-2-amino-2-(1-(5-chloro-2-(4-chloropyridin-3-yl)phenethyl)piperidin-4-yl)-1-(4-(2-ethoxy-6-fluorobenzyl)piperazin-1-yl) ethan-1-one] | B (25 μM<EC99≤100 μM) | C (100 μM<EC99) | B (25 μM<EC99≤100 μM) | B (25 μM<EC99≤100 μM) | B (25 μM<EC99≤100 μM)
CCOc1cccc(F)c1CN1CCN(C(=O)[C@H](N)C2CCN(CCc3cc(Cl)ccc3-c3cnccc3N)CC2)CC1 [Example 93, (R)-2-amino-2-(1-(2-(4-aminopyridin-3-yl)-5-chlorophenethyl)piperidin-4-yl)-1-(4-(2-ethoxy-6-fluorobenzyl)piperazin-1-yl)ethan-1-one] | S (EC99≤12.5 μM) | S (EC99≤12.5 μM) | S (EC99≤12.5 μM) | B (25 μM<EC99≤100 μM) | B (25 μM<EC99≤100 μM)
CCOc1ccc(O)c(F)c1CN1CCN(C(=O)[C@H](N)C2CCN(CCc3ccccc3)CC2)CC1 [Example 94, hydrobromide of (R)-2-amino-1-(4-(6-ethoxy-2-fluoro-3-hydroxybenzyl)piperazin-1-yl)-2-(1-phenethylpiperidin-4-yl)ethan-1-one] | C (100 μM<EC99) | C (100 μM<EC99) | C (100 μM<EC99) | B (25 μM<EC99≤100 μM) | B (25 μM<EC99≤100 μM)
CCOc1cccc(F)c1CN1CCN(C(=O)[C@H](N)C2CCN(CCc3cc(Cl)ccc3-c3ccccc3N)CC2)CC1 [Example 97, (R)-2-amino-2-(1-(2-(2′-amino-4-chloro-[1,1′-biphenyl]-2-yl)ethyl)piperidin-4-yl)-1-(4-(2-ethoxy-6-fluorobenzyl)piperazin-1-yl)ethan-1-one] | S (EC99≤12.5 μM) | S (EC99≤12.5 μM) | A (12.5 μM<EC99≤25 μM) | A (12.5 μM<EC99≤25 μM) | S (EC99≤12.5 μM)
CCOc1cccc(F)c1CN1CCN(C(=O)[C@H](N)C2CCN(CCc3cc(Cl)ccc3-c3cccc(N)c3)CC2)CC1 [Example 99, Hydrobromide of (R)-2-amino-2-(1-(2-(3′-amino-4-chloro-[1,1′-biphenyl]-2-yl)ethyl)piperidin-4-yl)-1-(4-(2-ethoxy-6-fluorobenzyl)piperazin-1-yl)ethan-1-one] | B (25 μM<EC99≤100 μM) | A (12.5 μM<EC99≤25 μM) | A (12.5 μM<EC99≤25 μM) | S (EC99≤12.5 μM) | S (EC99≤12.5 μM)
CCOc1cccc(F)c1CN1CCN(C(=O)[C@H](N)C2CCN(CCc3cc(Cl)ccc3-c3cccc(O)c3)CC2)CC1 [Example 100, (R)-2-amino-2-(1-(2-(4-chloro-3′-hydroxy-[1,1′-biphenyl]-2-yl)ethyl)piperidin-4-yl)-1-(4-(2-ethoxy-6-fluorobenzyl)piperazin-1-yl)ethan-1-one] | A (12.5 μM<EC99≤25 μM) | A (12.5 μM<EC99≤25 μM) | A (12.5 μM<EC99≤25 μM) | S (EC99≤12.5 μM) | S (EC99≤12.5 μM)
CCOc1cccc(F)c1CN1CCN(C(=O)[C@H](N)C2CCN(CCc3cc(Cl)ccc3-c3ccsc3)CC2)CC1 [Example 101, Hydrobromide of (R)-2-amino-2-(1-(5-chloro-2-(thiophen-3-yl)phenethyl)piperidin-4-yl)-1-(4-(2-ethoxy-6-fluorobenzyl)piperazin-1-yl)ethan-1-one] | B (25 μM<EC99≤100 μM) | C (100 μM<EC99) | B (25 μM<EC99≤100 μM) | S (EC99≤12.5 μM) | S (EC99≤12.5 μM)
CCOc1ccc(O)c(F)c1CN1CCN(C(=O)[C@H](N)C2CCN(CCc3cc(Cl)ccc3-c3ccccc3)CC2)CC1 [Example 104, hydrochloride of (R)-2-amino-2-(1-(2-(4-chloro-[1,1′-biphenyl]-2-yl)ethyl)piperidin-4-yl)-1-(4-(6-ethoxy-2-fluoro-3-hydroxybenzyl)piperazin-1-yl)ethan-1-one] | A (12.5 μM<EC99≤25 μM) | B (25 μM<EC99≤100 μM) | A (12.5 μM<EC99≤25 μM) | S (EC99≤12.5 μM) | S (EC99≤12.5 μM)
